“Also recorded” adds a separate entry of the source.
How the values were obtained:
hTRPM5 = target: T1, hTRPM5 (Homo sapiens, UniProt Q9NZQ8); test: hTRPM5 membrane potential dye FLIPR assay in HEK-293 cells (transient or stable clone); format: cell-based; conditions: for change in membrane potential in hTRPM5-expressing HEK293 cells: agonist of an expressed receptor (endogenous muscarinic, transfected H1 or AT1) or Ca2+ ionophore, dye R-8034; for dependence of agonist-induced change in membrane potential on extracellular Na+: NaCl versus NMDG replacement; for change in membrane potential in hTRPM5-expressing cells not transfected with the agonist's receptor: unrelated agonist control
T1 construct: expressed in transfected cells
T1 sequence (Q9NZQ8 1-1165): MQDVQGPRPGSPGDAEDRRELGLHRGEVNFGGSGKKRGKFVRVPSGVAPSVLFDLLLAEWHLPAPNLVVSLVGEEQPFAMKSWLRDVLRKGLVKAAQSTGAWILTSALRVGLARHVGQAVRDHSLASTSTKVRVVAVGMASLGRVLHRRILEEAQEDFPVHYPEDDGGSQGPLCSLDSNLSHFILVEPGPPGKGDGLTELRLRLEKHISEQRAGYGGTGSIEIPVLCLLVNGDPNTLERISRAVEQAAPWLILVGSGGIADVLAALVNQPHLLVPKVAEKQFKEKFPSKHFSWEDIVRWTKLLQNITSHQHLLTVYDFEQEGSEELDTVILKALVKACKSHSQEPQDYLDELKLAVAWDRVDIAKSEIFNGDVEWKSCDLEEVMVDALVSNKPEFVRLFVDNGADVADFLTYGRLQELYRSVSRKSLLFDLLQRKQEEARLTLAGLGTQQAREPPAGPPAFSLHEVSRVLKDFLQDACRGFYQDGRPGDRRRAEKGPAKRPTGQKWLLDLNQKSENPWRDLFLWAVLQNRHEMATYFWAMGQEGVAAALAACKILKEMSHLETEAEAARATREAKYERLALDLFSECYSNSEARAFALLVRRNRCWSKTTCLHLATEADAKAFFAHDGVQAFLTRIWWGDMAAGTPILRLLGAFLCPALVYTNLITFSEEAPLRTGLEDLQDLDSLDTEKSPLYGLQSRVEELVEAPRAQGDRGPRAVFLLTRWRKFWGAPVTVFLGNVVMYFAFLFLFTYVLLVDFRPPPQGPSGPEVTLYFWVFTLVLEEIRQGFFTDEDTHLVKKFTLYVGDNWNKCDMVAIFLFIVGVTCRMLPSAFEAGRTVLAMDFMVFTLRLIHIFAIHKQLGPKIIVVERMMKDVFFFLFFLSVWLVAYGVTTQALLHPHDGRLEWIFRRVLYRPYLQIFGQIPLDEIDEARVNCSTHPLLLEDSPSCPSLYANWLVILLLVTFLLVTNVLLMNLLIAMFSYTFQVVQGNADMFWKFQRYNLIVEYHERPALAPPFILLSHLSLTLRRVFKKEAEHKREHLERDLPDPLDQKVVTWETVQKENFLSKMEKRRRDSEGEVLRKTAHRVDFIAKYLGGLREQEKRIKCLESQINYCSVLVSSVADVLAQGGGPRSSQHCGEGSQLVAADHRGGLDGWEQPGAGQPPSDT
Experimental: (§1) HEK-293 cells (about 50-70% confluency) contained in 10 cm dishes are transfected with 5 μg of TRPM5 DNA and pcDNA3 and 2 μg of RFP plasmids using TransH293.
(§2) After 24 hours, the cells are split into 384-well plates at ˜50,000 cells/well.
(§3) At 48 hours post-transfection the cells are loaded with membrane potential dyes in HBSS for 60 minutes at room temperature.
Compounds plates are prepared in HBSS.
HEK-293 cells transfected with TRPM5 nucleic acid sequence containing plasmid that comprises neo marker and stable cell clones are selected using neomycin.
Screened clones are screened using membrane potential dyes and FLIPR, for a GPCR-induced change in membrane potential.
This experiment is contained in FIG. 10. In the experiment HEK293 cells were transfected with a plasmid encoding hTRPM5 in pcDNA3.Neo. 48 hours later cells were put in selection media (500 ug/ml neomycin) and stable clones were selected and expanded. Clone #51 was further characterized for carbachol-induced hTRPM5 activation. Cells were loaded with a membrane potential dye (R-8034; Molecular Devices Corporation). […]

mouse TRPM5 = target: T2, mouse TRPM5 (Mus musculus, UniProt Q9JJH7); test: Mouse TRPM5 membrane potential dye assay in transfected HEK293 cells; format: cell-based; conditions: for change in membrane potential in mouse TRPM5-expressing HEK293 cells: agonist of an expressed receptor or Ca2+ ionophore, dye R-8034; for change in membrane potential in mouse TRPM5 cells not transfected with the agonist's receptor: unrelated agonist control
T2 construct: expressed in transfected cells; host or cells: HEK293, in some experiments co-transfected with the AT1 or H1 receptor or stably expressing mT2R5 and Galpha15
T2 sequence (Q9JJH7 1-1158): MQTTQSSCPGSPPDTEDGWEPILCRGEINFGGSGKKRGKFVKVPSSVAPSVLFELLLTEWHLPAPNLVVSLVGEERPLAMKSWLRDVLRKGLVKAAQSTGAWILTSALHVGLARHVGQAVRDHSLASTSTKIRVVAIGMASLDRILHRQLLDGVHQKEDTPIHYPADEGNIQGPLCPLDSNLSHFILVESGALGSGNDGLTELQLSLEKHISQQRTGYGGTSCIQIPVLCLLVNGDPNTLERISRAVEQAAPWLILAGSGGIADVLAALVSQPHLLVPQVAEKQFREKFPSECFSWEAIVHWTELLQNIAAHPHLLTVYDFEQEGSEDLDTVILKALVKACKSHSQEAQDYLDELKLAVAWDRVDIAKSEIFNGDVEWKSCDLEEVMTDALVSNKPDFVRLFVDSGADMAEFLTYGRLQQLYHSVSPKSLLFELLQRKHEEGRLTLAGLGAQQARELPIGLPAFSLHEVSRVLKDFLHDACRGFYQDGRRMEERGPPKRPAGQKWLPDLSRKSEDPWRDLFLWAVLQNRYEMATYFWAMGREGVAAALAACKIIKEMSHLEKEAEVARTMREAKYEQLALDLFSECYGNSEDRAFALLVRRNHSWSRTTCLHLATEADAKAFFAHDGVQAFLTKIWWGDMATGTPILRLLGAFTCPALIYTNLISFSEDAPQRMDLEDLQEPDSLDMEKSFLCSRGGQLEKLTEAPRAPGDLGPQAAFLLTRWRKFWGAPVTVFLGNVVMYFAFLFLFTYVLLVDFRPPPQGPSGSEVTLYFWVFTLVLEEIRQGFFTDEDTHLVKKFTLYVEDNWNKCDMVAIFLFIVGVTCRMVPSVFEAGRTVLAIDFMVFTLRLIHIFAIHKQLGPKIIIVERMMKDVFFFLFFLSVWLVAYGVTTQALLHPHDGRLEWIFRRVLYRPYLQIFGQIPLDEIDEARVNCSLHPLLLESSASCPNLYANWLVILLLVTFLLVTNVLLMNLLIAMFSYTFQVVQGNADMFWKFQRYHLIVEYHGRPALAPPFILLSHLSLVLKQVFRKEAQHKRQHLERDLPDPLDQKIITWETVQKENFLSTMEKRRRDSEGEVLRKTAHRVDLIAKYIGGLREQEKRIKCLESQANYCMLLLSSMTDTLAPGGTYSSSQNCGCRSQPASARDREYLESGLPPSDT
Experimental: as §1, §2, §3
This experiment contained in FIG. 8 compares mTRPM5 responses to the calcium ionophore ionomycin and various GPCR agonists. As shown in the left top panel HEK293 cells were transfected with a plasmid encoding mouse TRPM5 (red trace) or a control plasmid (pUC; blue trace). 48 hours later cells were loaded with a membrane potential dye (R-8034; Molecular Devices Corporation).
This experiment contained in FIG. 9 compares hTRPM5 and mTRPM5 responses to GPCR agonist compounds. As shown in the left panel HEK293 cells stably expressing the cycloheximide bitter receptor mT2R5 and the promiscuous G protein G[…]15 were transfected with a plasmid encoding for mouse TRPM05 or a control plasmid (pUC). 48 hours later cells were loaded with a membrane potential dye (R-8034; Molecular Devices Corporation).

Ca^2+ mobilization = test: Ca2+ mobilization with Ca2+-sensitive dye (Fluo3) in HEK293 cells; format: cell-based, human
Experimental: (§4) As shown in the Left Panel: HEK293 cells were transfected with a plasmid encoding hTRPM5. 48 hours later cells were loaded with either a membrane potential dye (Molecular Devices Corporation; R-8034 or DisBAC) or a Ca^2+-sensitive dye (Fluo3). […] As shown in the Right Panel: HEK293 cells were transfected with a control plasmid (pUC) and treated as described above.
This experiment the results of which are contained in FIG. 7 compared TRPM5 responses to the Ca++ ionophore ionomycin. As shown in the left panel HEK293 cells were transfected with a plasmid encoding hTRPM5. 48 hours later cells were loaded with either a membrane potential dye (R-8034; Molecular Devices Corporation) or a Ca^2+-sensitive dye (Fluo3).
(§5) In this experiment the results of which are contained in FIG. 11 a library of ˜15,000 compounds (10 uM) was screened for hTRPM5 modulators using clone #51 (described in FIG. 10). In our initial screening conditions hTRPM5 was maximally stimulated with carbachol, using concentrations of 50 uM to 100 uM.

[1] = system: HEK293 cells lacking hTRPM5; test: Membrane potential dye assay in HEK293 cells lacking hTRPM5 (control plasmid pUC); format: cell-based, human; conditions: agonist stimulation
Experimental: as §4
This experiment the results of which are shown in FIG. 5 evaluated TRPM5 induced changes in membrane potential. As shown in the left panel HEK293 cells were transfected with plasmids encoding the H1 histamine receptor with (red trace) or without (blue trace) a plasmid encoding hTRPM5. 48 hours later cells were loaded with a membrane potential dye (R-8034; Molecular Devices Corporation).
as §5

Molecule | change in membrane potential in hTRPM5-expressing HEK293 cells (hTRPM5) | change in membrane potential in mouse TRPM5-expressing HEK293 cells (mouse TRPM5) | hTRPM5 activity produced (hTRPM5; 2 um carbachol) | dependence of agonist-induced change in membrane potential on extracellular Na+ (hTRPM5) | Ca^2+ response in control plasmid (pUC) transfected HEK293 cells (Ca^2+ mobilization) | Ca^2+ response in hTRPM5-transfected HEK293 cells (Ca^2+ mobilization) | change in membrane potential in cells lacking hTRPM5 [1] | change in membrane potential in mT2R05 / G15 stable HEK293 cells transfected with human TRPM5 (hTRPM5; versus pUC control) | change in membrane potential in mT2R5 / G15 stable HEK293 cells transfected with mouse TRPM5 (mouse TRPM5; versus pUC control) | change in membrane potential in hTRPM5-expressing cells not transfected with the agonist's receptor (hTRPM5) | change in membrane potential in mouse TRPM5 cells not transfected with the agonist's receptor (mouse TRPM5)
CNc1ccc2oc(C[C@H]3O[C@@]4(CC[C@H]3C)O[C@H]([C@H](C)C(=O)c3ccc[nH]3)[C@H](C)C[C@H]4C)nc2c1C(=O)O [A-23187] | TRPM5-dependent changes in membrane potential | TRPM5-dependent changes in membrane potential | – | – | – | – | – | – | – | – | –
C[N+](C)(C)CCOC(N)=O [carbachol] | concomitant increase in membrane potential; also recorded: dose-dependent increase in membrane potential; also recorded: dose-dependent increase in membrane potential that is much greater than what is seen in cells not expressing hTRPM5 | dose-dependent increase in membrane potential | 10-25% | only observed in the presence of NaCl | a significant increase in Ca^2+ is triggered | leads to Ca^2+ mobilization | no change in membrane potential is observed; also recorded: no significant change in membrane potential | – | – | – | –
C[C@@H]1C[C@@H]([C@H](O)CC2CC(=O)NC(=O)C2)C(=O)[C@@H](C)C1 [cycloheximide] | – | – | – | – | – | – | – | dose-dependent increase in membrane potential that is much greater than what is seen in cells not expressing human TRPM5 | dose-dependent increase in membrane potential that was much greater than what is seen in cells not expressing mouse TRPM5 | – | –
NCCc1c[nH]cn1 [histamine] | dose-dependent increase in membrane potential | dose-dependent increase in membrane potential | – | only observed in the presence of NaCl | – | – | no significant change in membrane potential | – | – | has no effect | did not have any effect
C[C@H](CCC(=O)O)C[C@H](C)C[C@H](C)C(=O)/C=C(\O)[C@H](C)C[C@H](C)C/C=C/[C@@H](C)[C@@H](O)[C@@H](C)[C@@H](O)C[C@@H]1CC[C@@](C)([C@H]2CC[C@@](C)([C@@H](C)O)O2)O1 [ionomycin] | concomitant increase in membrane potential; also recorded: dose-dependent increase in membrane potential that is noticeably greater in hTRPM5-expressing cells; also recorded: TRPM5-dependent changes in membrane potential | dose-dependent increase in membrane potential that is significantly greater in mouse-TRPM5 transfected cells; also recorded: TRPM5-dependent changes in membrane potential | – | – | – | leads to Ca^2+ influx | – | – | – | – | –
angiotensin II (DRVYIHPF) [AT1 angiotensin II receptor agonist] | dose-dependent increase in membrane potential | dose-dependent increase in membrane potential | – | only observed in the presence of NaCl | – | – | no significant change in membrane potential | – | – | did not have any effect | had no effect

Source: patent US20070161052A1, “TRPM5 based assays and the use thereof for the identification of modulators of sweet, bitter or umami (savory) taste” (SENOMYX, INC., priority 2005, published 2007)
